{
  "source": "patent US20140178456A1",
  "about": "“METHODS AND COMPOSITIONS FOR TREATING TYPE 2 DIABETES AND RELATED CONDITIONS” (priority 2012, published 2014)",
  "origin": "cited, not measured here",
  "note": "Structures can show the parent of a compound that is named as a salt.",
  "data": [
    {"smiles": "CCc1ccc(CCOc2ccc(CC3SC(=O)NC3=O)cc2)nc1", "note": "(centres unmarked) [pioglitazone]", "values": [
      {"measurement": "peak plasma concentration of pioglitazone and its active metabolites", "setting": "oral administration of 30 mg pioglitazone", "result": "about 146 μg per liter"}
    ]},
    {"smiles": "CN(CCOc1ccc(CC2SC(=O)NC2=O)cc1)c1ccccn1", "note": "(centres unmarked) [rosiglitazone maleate]", "values": [
      {"measurement": "peak plasma concentration", "setting": "oral administration of 8 mg rosiglitazone maleate", "result": "about 46114 per liter"}
    ]}
  ]
}
